{
  "source": "patent US20040120926A1",
  "about": "“Reactive oxygen metabolite inhibitors for use in compositions and methods of treatment” (priority 1999, published 2004)",
  "key": {"[1]": {"test_system": "elutriated MO (monocytes/macrophages)", "experiment": "Chemiluminescence assay of spontaneous isoluminol-enhanced extracellular superoxide anion generation in elutriated MO", "format": "cell-based, human", "method": "Peripheral venous blood was obtained as freshly prepared leukopacks from healthy blood donors at the Blood Centre, Sahlgren's Hospital, Goteborg, Sweden, to study the activation characteristics of cytotoxic lymphocytes in the presence and absence of MO, and ROM inhibitors. The blood (65 ml) was mixed with 92.5 ml Iscove's medium, 35 ml 6% Dextran (Kabi Pharmacia, Stockholm, Sweden) and 7.5 ml acid citrate dextrose (ACD) (Baxter, Deerfield, Ill.). After incubation for 15 minutes at room temperature, the supernatant was carefully layered onto Ficoll-Hypaque (Lymphoprep, Myegaard, Norway). Mononuclear cells (MNC) were collected at the interface after centrifugation at 380 g for 15 minutes at room temperature, washed twice in PBS and resuspended in Iscove's medium supplemented with 10% human AB+serum. During all further separation of cells, the cell suspensions were kept in siliconized test tubes (Vacuette, Greiner, Stockholm). […]\nTo assess whether DPI and histamine inhibited the spontaneous release of ROM from MO, a chemiluminescence assay was performed that specifically quantified extracellular ROM (superoxide anion). The spontaneous isoluminol-enhanced extracellular generation of superoxide anion in elutriated MO was measured using the assay described in Hellstrand, K., et al., J Immunol, 153:4940-4947 (1994) and in Lundqvist & Dahlgren, Free Radic. […]"}, "[2]": {"test_system": "T-cells (CD3ε+) and NK-cells (CD56+)", "experiment": "IL-2-induced CD69 expression on T-cells and NK-cells incubated with or without MO (flow cytometry)", "format": "cell-based, human", "method": "FIG. 1 is a graph showing the protection of CD3ε+ T-cells against oxidative inhibition by DPI. Lymphocytes and MO were recovered from peripheral blood as described herein. A mixture of MO and lymphocytes was treated with culture medium (control, open circles) or IL-2 (100 U/ml; filled circles) for 16 hrs. After incubation, lymphocytes were labeled with antibodies to CD3ε and CD69. […] Similar results were obtained when CD69 expression was examined in CD56+. NK-cells incubated with MO: 29.5% (control) or 79.0% (DPI 1000 nM) of NK-cells acquired the CD69 antigen in response to IL-2. […] The results are representative of three similar experiments.\nPeripheral venous blood was obtained as freshly prepared leukopacks from healthy blood donors at the Blood Centre, Sahlgren's Hospital, Goteborg, Sweden, to study the activation characteristics of cytotoxic lymphocytes in the presence and absence of MO, and ROM inhibitors. The blood (65 ml) was mixed with 92.5 ml Iscove's medium, 35 ml 6% Dextran (Kabi Pharmacia, Stockholm, Sweden) and 7.5 ml acid citrate dextrose (ACD) (Baxter, Deerfield, Ill.). After incubation for 15 minutes at room temperature, the supernatant was carefully layered onto Ficoll-Hypaque (Lymphoprep, Myegaard, Norway). Mononuclear cells (MNC) were collected at the interface after centrifugation at 380 g for 15 minutes at room temperature, washed twice in PBS and resuspended in Iscove's medium supplemented with 10% human AB+serum. During all further separation of cells, the cell suspensions were kept in siliconized test tubes (Vacuette, Greiner, Stockholm).\nThe MNC were further separated into lymphocyte and monocyte (MO) populations using the counter-current centrifugal elutriation (CCE) technique originally described by Yasaka and co-workers (Yasaka, T. et al., J. Immunol., 127:1515) with modifications as described in Hansson, M., et al. (J. Immunol., 156: 42 (1996); hereby incorporated by reference). Briefly, the MNC were resuspended in elutration buffer containing 0.05% BSA and 0.015% EDTA in buffered NaCl and fed into a Beckman J2-21 ultracentrifuge with a JE-6B rotor at 2100 rpm. A fraction with >90% MO was obtained at a flow rate of 18 ml/min. A lymphocyte fraction enriched for NK-cells (CD3^−/56^+ phenotype) and T-cells (CD3^+/56^−) was recovered at flow rates of 14-15 ml/min. This fraction contained <3% MO and consisted of CD3,^−/56^+ NK-cells (45-50%), CD3,^+/56^− T-cells (35-40%), CD3,^−/56^− cells (5-10%), and CD3,^+/56^+ cells (1-5%), as judged by flow cytometry. In some experiments, dynabeads (Dynal A/S, Oslo, Norway) coated with anti-CD56 were used to obtain purified lymphocyte preparations of T-cells, as described in detail by Hansson, M., et al., incorporated above.\nFlow cytometry was used in the experiments described below to identify the various sub-populations of T-cells. Flow cytometry permits an investigator to examine a population of cells using a number of labeled probes to differentiate sub-populations within the larger whole. In these experiments, the CD3 marker was used to identify the sub-population of T-cells and the CD4 and CD8 markers were used to further identify the sub-population of T-cells into T helper cells and CTLs. The effects of MO exposure in the presence and absence of histamine and T-cell activation compounds were determined using the CD69 T-cell activation marker. The expression of the different markers was estimated in a lymphocyte gate using flow cytometry (as described in Hellstrand, K., et al. Cell. Immunol. 138: 44-54 (1991), and hereby incorporated by reference).\nThe following protocol was used in experiments reporting the detection of surface antigens of cell populations. One million cells were incubated with appropriate fluorescein isothiocynate (FITC) and phycoerythrin (PE) conjugated monoclonal antibodies (Becton & Dickinson, Stockholm, Sweden; 1:1/10^6 cells), on ice for 30 minutes. […]"}, "[3]": {"test_system": "T-cells and NK-cells", "experiment": "MO-induced apoptosis in T-cells and NK-cells (flow cytometry, reduced forward and increased right angle scatter)", "format": "cell-based, human", "settings": "lymphocytes with MO, DPI 100 nM, Fas:Fc-IgG 20 μg/ml"}, "[4]": {"test_system": "mouse sarcoma (MCG)", "experiment": "In vivo tumor growth of subcutaneously inoculated mouse sarcoma (MCG)", "design": "species or system C57/b16 mice", "settings": "for Mean Tumor Weight: control .941", "method": "The following in vivo study was conducted to determine DPI's effectiveness in inhibiting tumor growth rate. C57/b16 mice were subcutaneously inoculated with mouse sarcoma (MCG) on Day 1. The mice were then subcutaneously injected once daily for Days 1-9 with either NaCl or DPI. There were 5 different treatment groups, including the control group that received NaCl. The other four treatment groups were administered DPI subcutaneously at dosages of either 1 mg/kg, 10 mg/kg, 50 mg/kg, or 100 mg/kg. On Day 9, the mice were killed and tumor size and weight was measured. The resulting tumor weights are provided below in Table 2."}, "[5]": {"experiment": "Scavenging of superoxide anion", "settings": "200 U/ml"}},
  "data": [
    {"molecule": "c1ccc([I+]c2ccccc2)cc1", "note": "[DPI, diphenyliodonium]", "values": [
      {"measurement": "reduction of released extracellular superoxide anion", "setting": "[1]; DPI 10 nM, MO from three blood donors", "result": "more than four fold reduction"},
      {"measurement": "NK-cells that acquired the CD69 antigen in response to IL-2", "setting": "[2]; CD56+ NK-cells incubated with MO, DPI 1000 nM, IL-2 100 U/ml, 16 hrs, control 29.5%", "result": 79.0, "unit": "%"},
      {"measurement": "MO-induced inhibition of T-cells and NK-cells (IL-2-induced CD69)", "setting": "[2]; DPI, lymphocytes with MO, IL-2 100 U/ml, 16 hours", "result": "significantly reversed"},
      {"measurement": "IL-2-induced expression of CD69 in T-cells or NK-cells", "setting": "[2]; incubated in the absence of MO", "result": "did not increase"},
      {"measurement": "viable CD56+/69+ (gated events)", "setting": "[2]; lymphocytes with MO, DPI 100 nM, Fas:Fc-IgG 20 μg/ml, control 36", "result": 1248, "unit": "gated events"},
      {"measurement": "viable CD3+/CD69+ (gated events)", "setting": "[2]; lymphocytes with MO, DPI 100 nM, Fas:Fc-IgG 20 μg/ml, control 89", "result": 701, "unit": "gated events"},
      {"measurement": "apoptotic CD3+/CD69+(%)", "setting": "[3]; control 52", "result": 7, "unit": "%"},
      {"measurement": "apoptotic CD56+/CD69+(%)", "setting": "[3]; control 71", "result": 13, "unit": "%"},
      {"measurement": "Mean Tumor Weight", "setting": "[4]; 1 mg/kg s.c. once daily Days 1-9, Day 9", "result": 1.107, "unit": "gms"},
      {"measurement": "Mean Tumor Weight", "setting": "[4]; 10 mg/kg s.c. once daily Days 1-9, Day 9", "result": ".643 gms"},
      {"measurement": "Mean Tumor Weight", "setting": "[4]; 50 mg/kg s.c. once daily Days 1-9, Day 9", "result": ".638 gms"},
      {"measurement": "Mean Tumor Weight", "setting": "[4]; 100 mg/kg s.c. once daily Days 1-9, Day 9", "result": ".473 gms"},
      {"measurement": "effect on tumor growth rate in vivo", "setting": "[4]; 1, 10, 50, 100 mg/kg s.c. once daily Days 1-9", "result": "dose dependent inhibiting effect"}
    ]},
    {"molecule": "NCCc1c[nH]cn1", "note": "[histamine, reference compound]", "values": [
      {"measurement": "inhibition of the concentration of extracellular superoxide anion", "setting": "[1]; histamine at 50 μM", "result": "more than five-fold"}
    ]},
    {"molecule": "Catalase [reference compound]", "values": [
      {"measurement": "MO-induced inhibition of IL-2-induced CD69 expression in T-cells and NK-cells", "setting": "[2]; catalase at concentrations exceeding 50 U/ml", "result": "significantly reversed"}
    ]},
    {"molecule": "superoxide dismutase [reference compound]", "values": [
      {"measurement": "MO-induced inhibition of IL-2-induced CD69 expression in T-cells and NK-cells", "setting": "[2]; superoxide dismutase 200 U/ml", "result": "ineffective"},
      {"measurement": "superoxide anion scavenged", "setting": "[5]", "result": "> 90", "unit": "%"}
    ]}
  ]
}
